Read-outs that look alike come from different tables or passages of the source.
What was measured:
MOLM-13 cells = assay: Cell proliferation test on MOLM-13 cells (Cellriter-Glo); type: cell-based; conditions: Homo sapiens
Description: Cell plating: Cells were plated when they grow to a logarithmic growth phase. The cells were collected and the cell density was adjusted to 6×10^4 cells/mL; then the cell suspension is then poured into a loading slot and added into a 96-well cell culture plate at 50 μL/well (3000 cells/well viable cells). Note: the cells in the loading slot were well mixed while plating; cell information and plating date were labeled on the 96-well plates. NC wells (control wells) and BG wells (background wells) were provided. […] 50 μL/well of the compounds were added to the 96-well plate in which the cells were already plated. Incubation was carried out at 37° C., 5% CO2 for a period of time. Cell proliferation test: After incubation in the incubator for a period of time, 50 μL of […]-Glo Reagent per well was added. The plate was shaken at room temperature (500 rpm), incubated for 10 min in the dark, and then the […] was measured with a microplate reader. The mean background value was calculated. [formula] […] Specific data were presented in the form of graphs.

[1] = Pharmacokinetic test in mice; type: in vivo; conditions: male C57 mice, plasma
Description: • 2.1 Experimental animals: male C57 mice, 18-20 g, 6 mice/compound or 12 mice/compound. • 2.2 Experimental design: the C57 mice were randomly grouped according to their body weights. The animals were fasted with water available for 12 to 14 h one day before the administration, and were fed 4 h after the administration.
Vehicle for intravenous administration: 5% DMA+5% Solutol+90% Saline; vehicle for intragastric administration: 0.5% MC; • (DMA: dimethylacetamide; Solutol: polyethylene glycol-15-hydroxystearate; Saline: physiological saline; MC: Methyl cellulose solution)
Before and after the administration, 0.06 mL of blood was taken from the orbit of the animals under isoflurane anesthesia and placed in an EDTAK2 centrifuge tube. The blood was centrifuged at 5000 rpm and 4° C. for 10 min to collect the plasma. The blood collection time points for the intravenous administration group and intragastric administration group were 0 min, 5 min, 15 min, 30 min, 1 h, 2 h, 4 h, 7 h and 24 h. Before analysis and detection, all samples were stored at −80° C.

[2] = target: T1, hERG potassium ion channel (Homo sapiens, UniProt Q12809); assay: Test for hERG potassium ion channel (manual patch-clamp, CHO cells); type: cell-based; conditions: CHO cells stably expressing hERG, whole cell patch-clamp, room temperature; read-out: IC50 for the inhibitory effect on hERG potassium channel current
T1 construct: expressed in transfected cells
Text: Experimental platform: electrophysiological manual patch-clamp system Cell line: Chinese hamster ovary (CHO) cell lines stably expressing hERG potassium ion channel
Experimental method: in CHO (Chinese Hamster Ovary) cells stably expressing hERG potassium channel, whole cell patch-clamp technique was used to record hERG potassium channel current at room temperature. The glass microelectrode was made of a glass electrode blank (BF150-86-10, Sutter) by a puller. The tip resistance after filling the liquid in the electrode was about 2-5 MO. The glass microelectrode can be connected to the patch-clamp amplifier by inserting the glass microelectrode into an amplifier probe. The clamping voltage and data recording were controlled and recorded by the pClamp 10 software through a computer. The sampling frequency was 10 kHz, and the filtering frequency was 2 kHz. […]
Data processing: Data analysis processing was carried out by using pClamp 10, GraphPad Prism 5 and Excel software. The inhibition degree of hERG potassium current (peak value of hERG tail current induced at −50 mV) at different compound concentrations was calculated by the following formula: […]
Compound IC50 was calculated using GraphPad Prism 5 software by fitting according to the following equation: […]

[3] = MOLM-13, read-out: IC50 on MOLM-13 cells
[4] = MOLM-13 cells, maximum detection concentration 10 μM, read-out: IC50 of compounds on MOLM-13 cells

T1 sequence (Q12809 whole entry): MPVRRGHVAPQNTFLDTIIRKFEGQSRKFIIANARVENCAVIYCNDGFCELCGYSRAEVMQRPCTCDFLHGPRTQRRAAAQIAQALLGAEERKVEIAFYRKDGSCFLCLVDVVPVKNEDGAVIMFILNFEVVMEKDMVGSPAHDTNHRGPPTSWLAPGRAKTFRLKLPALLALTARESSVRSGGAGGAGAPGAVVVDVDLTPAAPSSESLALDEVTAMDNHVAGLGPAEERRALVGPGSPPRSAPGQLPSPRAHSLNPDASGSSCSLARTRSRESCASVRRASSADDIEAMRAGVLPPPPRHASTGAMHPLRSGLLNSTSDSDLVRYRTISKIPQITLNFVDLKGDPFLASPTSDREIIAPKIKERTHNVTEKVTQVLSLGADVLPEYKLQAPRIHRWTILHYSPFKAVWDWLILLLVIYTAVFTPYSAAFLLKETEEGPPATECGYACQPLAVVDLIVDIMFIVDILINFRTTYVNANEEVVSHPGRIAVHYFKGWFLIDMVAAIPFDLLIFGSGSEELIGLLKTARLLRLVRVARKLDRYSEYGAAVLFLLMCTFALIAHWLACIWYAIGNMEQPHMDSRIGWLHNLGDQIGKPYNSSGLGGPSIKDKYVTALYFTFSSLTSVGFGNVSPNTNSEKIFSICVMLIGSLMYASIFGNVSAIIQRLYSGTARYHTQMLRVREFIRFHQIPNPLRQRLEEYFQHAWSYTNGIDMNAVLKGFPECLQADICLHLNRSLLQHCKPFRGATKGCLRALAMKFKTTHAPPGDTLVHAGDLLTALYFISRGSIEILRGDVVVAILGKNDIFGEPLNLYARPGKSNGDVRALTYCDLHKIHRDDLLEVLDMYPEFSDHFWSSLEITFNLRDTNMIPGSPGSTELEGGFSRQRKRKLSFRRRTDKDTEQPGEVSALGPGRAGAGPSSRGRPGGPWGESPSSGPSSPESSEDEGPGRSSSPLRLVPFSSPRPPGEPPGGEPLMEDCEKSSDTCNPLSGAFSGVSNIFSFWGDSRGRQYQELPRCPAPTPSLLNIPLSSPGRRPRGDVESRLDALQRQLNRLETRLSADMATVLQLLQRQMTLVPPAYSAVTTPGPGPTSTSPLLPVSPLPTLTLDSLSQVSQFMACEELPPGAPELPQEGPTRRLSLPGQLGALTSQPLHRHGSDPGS

Row | Compound | IC50 (MOLM-13 cells; [4]) [nM] | other results
1 | Cn1ccn2c(=O)cc(C(=O)NCc3ccc4cc(CNCC56CC(F)(C5)C6)[nH]c4c3)nc12 [Compound 3] | < 2000 | IC50 (MOLM-13 cells; [3]): 230 nM
2 | [2H]C([2H])([2H])n1ccn2c(=O)cc(C(=O)NCc3ccc4cc(CNCC56CC(F)(C5)C6)[nH]c4c3)nc12 [Compound 4] | < 2000 | IC50 (MOLM-13 cells; [3]): 160 nM
3 | O=C(NCc1ccc2cc(CNCC34CC(F)(C3)C4)[nH]c2c1)c1cc(=O)n2ccccc2n1 [Compound 23 in WO 2021111124] | – | F ([1]; i.g. 10 mg/kg): 31.6%; AUC(0-t) ([1]; mouse, iv, i.v. 2.5 mg/kg): 730 ng·h/mL; clearance ([1]; mouse, iv, i.v. 2.5 mg/kg): 57 mL/min/kg; Vd ([1]; mouse, iv, i.v. 2.5 mg/kg, read-out: Vdss): 2.21 L/kg; AUC(0-t) ([1]; mouse, po, i.g. 10 mg/kg): 923 ng·h/mL
4 | O=C(NCc1ccc2cc(CNCC3CCC3)[nH]c2c1)c1cc(=O)n2ccn(CC3CC3)c2n1 [Trifluoroacetate of compound 5] | 2000 to 10000 | –
5 | CC(C)n1ccn2c(=O)cc(C(=O)NCc3ccc4cc(CNCC5CCC5)[nH]c4c3)nc12 [Trifluoroacetate of compound 6] | 2000 to 10000 | –
6 | CCn1ccn2c(=O)cc(C(=O)NCc3ccc4cc(CNCC56CC(F)(C5)C6)[nH]c4c3)nc12 [Trifluoroacetate of compound 8] | – | IC50 (MOLM-13 cells; MOLM-13, read-out: IC50 of compounds on MOLM-13 cells): < 2000 nM
7 | CCn1ccn2c(=O)cc(C(=O)NCc3ccc4cc(CNCC5CCC5)[nH]c4c3)nc12 [Trifluoroacetate of compound 9] | 2000 to 10000 | –
8 | C#CCn1ccn2c(=O)cc(C(=O)NCc3ccc4cc(CNCC5CCC5)[nH]c4c3)nc12 [Trifluoroacetate of compound 10] | < 2000 | –
9 | O=C(NCc1ccc2cc(CNCC3CCC3)[nH]c2c1)c1cc(=O)n2ccn(C3CC3)c2n1 [Trifluoroacetate of compound 11] | 2000 to 10000 | –
10 | O=C(NCc1cc2[nH]c(CNCC34CC(F)(C3)C4)cc2s1)c1cc(=O)n2ccn(C(F)F)c2n1 [Trifluoroacetate of compound 14] | 2000 to 10000 | –

Continued, in another order:

Row | IC50 (MOLM-13 cells; [4]) [nM] | Compound | other results
11 | 2000 to 10000 | O=C(NCc1cc2[nH]c(CNCC3CCC3)cc2s1)c1cc(=O)n2cccc(F)c2n1 [Compound 18] | –
12 | 2000 to 10000 | O=C(NCc1cc2[nH]c(CNC3CCCCC3)cc2s1)c1cc(=O)n2ccccc2n1 [Compound 20] | –
13 | 2000 to 10000 | CC(C)(C)CNCc1cc2sc(CNC(=O)c3cc(=O)n4ccccc4n3)cc2[nH]1 [Compound 22] | –
14 | < 2000 | Cn1ccn2c(=O)cc(C(=O)NCc3ccc4cc(CNCC5CCC5)[nH]c4c3)nc12 [Trifluoroacetate of compound 1] | –
15 | 2000 to 10000 | O=C(NCc1ccc2cc(CNCC3CCC3)[nH]c2c1)c1cc(=O)n2cc[nH]c2n1 [Trifluoroacetate of compound 2] | –
16 | < 2000 | O=C(NCc1cc2[nH]c(CNCC3CCC3)cc2s1)c1cc(=O)n2ccccc2n1 [Trifluoroacetate of compound 12] | IC50 [2]: > 30000 nM
17 | 2000 to 10000 | O=C(NCc1cc2[nH]c(CNCC3CCC3)cc2s1)c1cc(=O)n2cc(F)ccc2n1 [Trifluoroacetate of compound 16] | –
18 | 2000 to 10000 | O=C(NCc1cc2[nH]c(CNCC3CCC3)cc2s1)c1cc(=O)n2ccc(C3CC3)cc2n1 [Trifluoroacetate of compound 17] | –

— US20250145627A1, “METTL3 Inhibitor and Composition, and Application of Same in Medicine” (XIZANG HAISCO PHARMACEUTICAL CO., LTD., priority 2022, published 2025)
